Reference: patent publication US4844894A, “Method of inhibiting the onset of septicemia and endotoxemia” (priority 1986, dated 1989)

Experiments:
[1] = tested on: chick embryos; test: Chick embryo 50% lethal dose assay (CELD50); assay type: in vivo
Protocol: A sensitive measure of endotoxin toxicity is the chick embryo 50% lethal dose assay (CELD50). In this test, chick embryos at 10 days of age are injected with varying doses of the material to be tested. […] Using the chick embryo test, a comparison was made of the toxicity of radiation-detoxified endotoxin with the parent endotoxin as well as with MPL.

[2] = Phosphorous content; assay type: physicochemical; conditions: Percent by weight
[3] = tested on: septicemia; test: Nonspecific resistance to septicemia induced in mice by cecal ligation and puncture; assay type: in vivo, NMRI mice; conditions: 1 μg, ip, 24 hr prior surgery
Protocol: 14 NMRI mice were pretreated with one microgram of MPL administered by intraperitoneal injection. 24 hours later each of the mice underwent surgery wherein the cecum of each mouse was ligated and punctured to internally expose the mice to microorganisms capable of instigating the onset of septicemia. […] A second group of mice were subjected to surgery in precisely the same way without pretreatment with MPL.

[4] = tested on: endotoxin (E. coli 0111:B 4); test: Non-septic endotoxemia: endotoxin (E. coli 0111:B4) challenge ip in mice; assay type: in vivo; conditions: 100 ug MPL ip day 0
Protocol: (§1) A model for non-septic endotoxemia is to inject mice intraperitoneally (ip) with endotoxin. […] Depending on the dose, death may occur within about 72 hours. The LD50 can be determined by injecting groups of mice with different doses of endotoxin, and noting the number of survivors in each group. The protective effect of a given treatment is evidenced by an increase in the LD50 of the endotoxin challenge.
(§2) In this embodiment, mice were injected ip on day 0 with either 100 ug MPL in 0.25 ml saline (treatment group) or else saline alone (control group). On day 3, mice in both groups received an ip injection containing one of several different doses of endotoxin (E. coli 0111:B 4). There were 8 mice at each endotoxin dose level. The doses for the control group were […] endotoxin. The doses for treatment group were 0.75, 1.00, 1.25, 1.50, 2.0, and 2.5 mg endotoxin. […] The LD50 for each group was calculated using the method of Reed and Meuench (ibid.). […] Since only 2 mice dies at the highest endotoxin dose in the treatment group, the LD50 the LD50 could not be calculated for this group. It is evident, however, that it would be well above 2.5 mg, probably around 5-6 mg. This would correspond to at least a 4 to 5 fold increase in the LD50 following treatment with MPL.

[5] = tested on: endotoxin from E. coli K235; test: Non-septic endotoxemia: endotoxin from E. coli K235 challenge ip in mice; assay type: in vivo; conditions: pre-treated with 100 ug MPL
Protocol: as §1, §2
In another experiment the LD50 's for both the control and the treatment groups were successfully determined. The experimental design was essentially the same as that described above except that the endotoxin used was obtained from E. coli K235.

[6] = tested on: E. coli 055B5; test: Septic endotoxemia: challenge with 5 LD50's of live E. coli 055B5 in mice; assay type: in vivo; conditions: 50 ug MPL ip on days 0 and 1; challenge on day 2
Protocol: (§3) Injection of mice ip with live E. coli provides a good model of gram-negative sepsis and associated endotoxemia, since E. coli readily sheds endotoxin. In this model, a known quantity of live E. coli are injected, and the survivors are counted for an appropriate number of days. The effectiveness of a treatment is evidenced by an increase in the survivorship for a treated group.
In the experiment, 10 mice were given ip injections of 50 ug MPL on days 0 and 1. They therefore received a total of 100 ug MPL. The control group received only saline. All mice were challenged on day 2 with 5 LD50 's of E. coli 055B5 organisms, also injected ip. All control animals died, whereas all treated animals (10/10) survived.

[7] = tested on: E. coli 055B5; test: Septic endotoxemia: challenge with 30 LD50's of E. coli 055B5 in mice; assay type: in vivo; conditions: 25, 25 and 50 ug MPL ip on days 0, 1 and 2; challenge on day 2
Protocol: as §3
In a manner similar to that employed in Example 3, 10 mice were given ip injections on days 0, 1 and 2 of 25, 25 and 50 ug MPL, respectively, corresponding to a total of 100 ug MPL for each mouse. Mice in the control group received only saline. On day 2, all mice received a challenge consisting of 30 LD50 's of E. coli 055B5. This corresponds to an overwhelming challenge dose. No mice in the control group survived, while 50% animals (5/10) in the treatment group survived.

[8] = tested on: rabbits; conditions: Table B, ref (2); cited from earlier work
[9] = tested on: rabbits; conditions: Table B, refs (1), (3); cited from earlier work
[10] = relative to parent endotoxin; cited from earlier work
[11] = tested on: rabbits; conditions: Table B, refs (1), (2); cited from earlier work
[12] = 120 hrs after induction of septicemia

## CCCCCCCCCCCCCC(=O)OC(CCCCCCCCCCC)CC(=O)OC1C(NC(=O)CC(CCCCCCCCCCC)OC(=O)CCCCCCCCCCC)C(OCC2OC(O)C(NC(=O)CC(O)CCCCCCCCCCC)C(OC(=O)CC(O)CCCCCCCCCCC)C2O)OC(CO)C1OP(=O)(O)O (stereo not shown) [MPL, Monophosphoryl Lipid A]
[1]; at any dose, footnote to Table A
  eggs killed in CELD50 test: No eggs killed at any dose
[1]; chick embryos at 10 days of age, survivors at 24 hours
  CELD50: > 20 µg
[1]; text conclusion from Table A
  toxicity in CELD50 assay, in words: essentially no toxicity
[2]
  Phosphorous Content: 1.8%
[3]
  effect on onset of septicemia, in words: inhibits the onset of septicemia
[3]; [12]
  % Survival: 71%
  Dead/Total: 4/14
[4]; 2.5 mg endotoxin day 3, 8 mice per dose level
  mice dying at the highest endotoxin dose: 2 mice
[4]; endotoxin ip day 3
  fold increase in LD50 of endotoxin following treatment: 4 to 5 fold
[5]
  LD50 of endotoxin in pre-treated mice: 1.16 mg
  increase (factor) in LD50 of endotoxin: ~5 factor
  symptoms of endotoxemia: did not show any of the usual symptoms of endotoxemia
[6]
  treated animals survived: 10/10
[7]
  animals survived in treatment group: 5/10
  survival, % of animals in treatment group: 50%
[8]
  LD50 in rabbits: > 8,000 mcg/kg
[9]
  Local Shwartzman Reaction in rabbits (area of hemorrhagic lesion): < 10 mm^2
[10]
  toxicity in all of the Table B assays, in words: only negligible toxicity
[11]
  Pyrogenicity in rabbits (difference between basic and maximal body temperature): 0 °C
